Experimental data taken from ChEMBL document CHEMBL4270597, “Donepezil-butylated hydroxytoluene (BHT) hybrids as Anti-Alzheimer's disease agents with cholinergic, antioxidant, and neuroprotective properties” (Eur J Med Chem, 2018).
Calls of active or inactive are those of the source. The calls are words filed in the database; no cut-off is given here.

Key:
[1] = molecular target: Cholinesterase (Equus caballus) (UniProt P81908); test: Inhibition of equine serum BuChE at 100 uM using butyrylthiocholine iodide as substrate incubated for 5 mins followed by substrate addition measured after 180 secs by Ellman's method relative to control
Cholinesterase (Equus caballus), sequence (P81908 whole entry): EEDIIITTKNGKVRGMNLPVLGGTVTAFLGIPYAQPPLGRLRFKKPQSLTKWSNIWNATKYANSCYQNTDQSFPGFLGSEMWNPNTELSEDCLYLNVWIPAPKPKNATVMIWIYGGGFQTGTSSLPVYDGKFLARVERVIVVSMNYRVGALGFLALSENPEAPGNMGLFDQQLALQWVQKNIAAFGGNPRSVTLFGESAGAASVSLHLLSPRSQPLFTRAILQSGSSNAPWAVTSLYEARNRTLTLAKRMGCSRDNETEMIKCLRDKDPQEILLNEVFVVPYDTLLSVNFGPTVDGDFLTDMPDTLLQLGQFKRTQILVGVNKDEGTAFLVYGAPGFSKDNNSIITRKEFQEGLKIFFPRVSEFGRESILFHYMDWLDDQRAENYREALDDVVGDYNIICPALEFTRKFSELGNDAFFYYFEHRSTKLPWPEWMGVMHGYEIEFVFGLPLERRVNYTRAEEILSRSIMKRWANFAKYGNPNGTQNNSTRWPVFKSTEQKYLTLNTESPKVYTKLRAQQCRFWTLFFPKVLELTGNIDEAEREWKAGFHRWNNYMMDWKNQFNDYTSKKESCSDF

[2] = Antioxidant activity assessed as DPPH radical scavenging activity measured after 30 mins incubation in dark by UV-Visible spectrophotometric analysis; format: functional
[3] = Antioxidant activity assessed as trolox equivalent of AAPH-induced radical scavenging activity preincubated for 15 mins followed by AAPH addition measured every minute for 120 mins by ORAC-FL based fluorescein assay; format: functional
[4] = Antioxidant activity assessed as ABTS radical cation scavenging activity by measuring trolox equivalent antioxidant capacity measured at 6 mins; format: functional
[5] = molecular target: T1, Amine oxidase [flavin-containing] B (Homo sapiens, UniProt P27338); test: Inhibition of human MAO-B using p-tyramine as substrate incubated for 15 mins followed by substrate addition measured for 20 mins by fluorescence assay
T1 sequence (P27338 whole entry): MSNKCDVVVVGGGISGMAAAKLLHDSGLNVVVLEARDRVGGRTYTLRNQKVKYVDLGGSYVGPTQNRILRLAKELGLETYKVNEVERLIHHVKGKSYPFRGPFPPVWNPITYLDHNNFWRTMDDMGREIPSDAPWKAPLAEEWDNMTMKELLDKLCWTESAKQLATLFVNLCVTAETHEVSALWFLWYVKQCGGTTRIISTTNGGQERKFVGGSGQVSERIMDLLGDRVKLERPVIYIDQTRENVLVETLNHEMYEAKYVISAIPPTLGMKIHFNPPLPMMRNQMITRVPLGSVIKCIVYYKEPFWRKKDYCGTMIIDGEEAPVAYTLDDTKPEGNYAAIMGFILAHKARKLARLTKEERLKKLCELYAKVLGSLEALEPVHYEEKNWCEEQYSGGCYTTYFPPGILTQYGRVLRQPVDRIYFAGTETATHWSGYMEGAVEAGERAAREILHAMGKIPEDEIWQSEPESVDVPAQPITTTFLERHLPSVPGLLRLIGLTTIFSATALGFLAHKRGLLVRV

Homo sapiens = organism: Homo sapiens; test: Selectivity index, ratio of IC50 for human serum BuChE to IC50 for human erythrocyte AChE
Cholinesterase [6] = molecular target: T2, Cholinesterase (Homo sapiens, UniProt P06276); test: Inhibition of human serum BuChE at 100 uM using butyrylthiocholine iodide as substrate incubated for 5 mins followed by substrate addition measured after 180 secs by Ellman's method relative to control
T2 sequence (P06276 whole entry): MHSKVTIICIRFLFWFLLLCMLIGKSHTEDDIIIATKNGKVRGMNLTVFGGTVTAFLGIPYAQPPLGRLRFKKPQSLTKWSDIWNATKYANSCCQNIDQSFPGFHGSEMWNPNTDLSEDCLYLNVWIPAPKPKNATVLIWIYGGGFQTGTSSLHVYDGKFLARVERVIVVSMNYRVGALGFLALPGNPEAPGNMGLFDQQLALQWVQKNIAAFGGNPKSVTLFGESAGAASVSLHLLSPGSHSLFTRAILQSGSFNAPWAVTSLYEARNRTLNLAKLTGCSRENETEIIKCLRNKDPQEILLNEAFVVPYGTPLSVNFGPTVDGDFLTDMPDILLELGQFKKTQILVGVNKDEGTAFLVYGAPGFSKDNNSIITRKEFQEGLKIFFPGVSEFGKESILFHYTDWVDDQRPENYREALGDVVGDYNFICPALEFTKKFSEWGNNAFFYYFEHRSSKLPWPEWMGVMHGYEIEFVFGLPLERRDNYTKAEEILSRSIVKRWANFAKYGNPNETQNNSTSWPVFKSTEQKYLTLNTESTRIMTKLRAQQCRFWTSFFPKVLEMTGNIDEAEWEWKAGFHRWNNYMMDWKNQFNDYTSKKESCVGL

Acetylcholinesterase [7] = molecular target: Acetylcholinesterase (Electrophorus electricus, UniProt O42275); test: Inhibition of electric eel AChE using acetylthiocholine chloride as substrate incubated for 5 mins followed by substrate addition measured after 180 secs by Ellman's method
Acetylcholinesterase (Electrophorus electricus, UniProt O42275), sequence (O42275 whole entry): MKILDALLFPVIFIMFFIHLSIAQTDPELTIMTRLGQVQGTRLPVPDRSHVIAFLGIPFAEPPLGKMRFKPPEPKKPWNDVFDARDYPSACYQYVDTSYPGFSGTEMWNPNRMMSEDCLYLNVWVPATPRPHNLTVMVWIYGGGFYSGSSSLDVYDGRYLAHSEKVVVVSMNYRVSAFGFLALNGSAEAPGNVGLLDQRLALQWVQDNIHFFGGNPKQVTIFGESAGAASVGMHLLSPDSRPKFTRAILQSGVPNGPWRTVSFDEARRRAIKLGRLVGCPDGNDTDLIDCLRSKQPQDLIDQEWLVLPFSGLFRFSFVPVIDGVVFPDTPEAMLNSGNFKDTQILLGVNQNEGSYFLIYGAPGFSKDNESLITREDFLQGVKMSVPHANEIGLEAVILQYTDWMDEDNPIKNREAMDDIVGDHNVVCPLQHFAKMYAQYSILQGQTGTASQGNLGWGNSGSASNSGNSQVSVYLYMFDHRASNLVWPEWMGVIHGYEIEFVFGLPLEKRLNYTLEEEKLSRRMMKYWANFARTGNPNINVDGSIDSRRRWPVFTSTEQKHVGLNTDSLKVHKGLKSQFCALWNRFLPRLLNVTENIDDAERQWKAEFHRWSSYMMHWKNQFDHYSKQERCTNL

[8] = molecular target: T3, Amine oxidase [flavin-containing] A (Homo sapiens, UniProt P21397); test: Inhibition of human MAO-A using p-tyramine as substrate incubated for 15 mins followed by substrate addition measured for 20 mins by fluorescence assay
T3 sequence (P21397 whole entry): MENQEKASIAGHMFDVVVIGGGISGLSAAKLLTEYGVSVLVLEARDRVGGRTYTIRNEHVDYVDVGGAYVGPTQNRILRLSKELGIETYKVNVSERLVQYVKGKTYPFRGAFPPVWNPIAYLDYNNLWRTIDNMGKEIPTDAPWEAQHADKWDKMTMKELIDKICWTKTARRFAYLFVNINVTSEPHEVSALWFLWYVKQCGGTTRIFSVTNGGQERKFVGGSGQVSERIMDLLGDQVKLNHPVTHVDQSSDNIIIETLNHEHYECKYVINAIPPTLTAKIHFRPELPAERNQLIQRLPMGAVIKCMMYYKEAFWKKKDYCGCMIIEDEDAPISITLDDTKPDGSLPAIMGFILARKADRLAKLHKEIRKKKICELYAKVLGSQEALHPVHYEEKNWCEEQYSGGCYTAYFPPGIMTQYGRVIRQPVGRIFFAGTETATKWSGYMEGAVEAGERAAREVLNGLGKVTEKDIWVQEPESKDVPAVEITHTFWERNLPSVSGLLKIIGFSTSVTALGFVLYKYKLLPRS

Acetylcholinesterase [9] = molecular target: T4, Acetylcholinesterase (Homo sapiens, UniProt P22303); test: Inhibition of human erythrocyte AChE using acetylthiocholine chloride as substrate incubated for 5 mins followed by substrate addition measured after 180 secs by Ellman's method
T4 sequence (P22303 whole entry): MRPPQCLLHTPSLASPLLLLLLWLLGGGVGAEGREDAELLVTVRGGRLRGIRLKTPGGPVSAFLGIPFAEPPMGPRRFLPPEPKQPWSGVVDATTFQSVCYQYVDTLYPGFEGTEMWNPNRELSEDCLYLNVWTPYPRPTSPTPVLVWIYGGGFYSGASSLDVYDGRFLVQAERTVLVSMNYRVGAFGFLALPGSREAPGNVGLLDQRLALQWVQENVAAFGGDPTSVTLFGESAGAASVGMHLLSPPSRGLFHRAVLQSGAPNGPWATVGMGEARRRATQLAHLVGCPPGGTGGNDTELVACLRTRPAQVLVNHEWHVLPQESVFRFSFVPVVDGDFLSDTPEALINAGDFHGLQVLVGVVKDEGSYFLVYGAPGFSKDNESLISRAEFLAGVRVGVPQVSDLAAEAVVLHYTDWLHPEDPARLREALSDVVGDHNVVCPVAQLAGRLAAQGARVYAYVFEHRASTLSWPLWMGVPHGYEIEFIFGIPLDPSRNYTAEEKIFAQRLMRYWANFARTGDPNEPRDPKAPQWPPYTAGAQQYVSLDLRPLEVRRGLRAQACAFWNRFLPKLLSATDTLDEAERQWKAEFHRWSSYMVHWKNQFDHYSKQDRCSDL

BV-2 = test: Antineuroinflammatory activity in mouse BV2 cells assessed as inhibition of LPS-induced NO production at 10 to 30 uM after 24 hrs by Griess assay; format: functional, cell-based
Cholinesterase [10] = molecular target: T2, Cholinesterase; test: Inhibition of human serum BuChE using butyrylthiocholine iodide as substrate incubated for 5 mins followed by substrate addition measured after 180 secs by Ellman's method
[11] = molecular target: Acetylcholinesterase (Electrophorus electricus) (UniProt O42275); test: Inhibition of electric eel AChE at 100 uM using acetylthiocholine chloride as substrate incubated for 5 mins followed by substrate addition measured after 180 secs by Ellman's method relative to control
Acetylcholinesterase (Electrophorus electricus), sequence (O42275 24-633 limits assumed): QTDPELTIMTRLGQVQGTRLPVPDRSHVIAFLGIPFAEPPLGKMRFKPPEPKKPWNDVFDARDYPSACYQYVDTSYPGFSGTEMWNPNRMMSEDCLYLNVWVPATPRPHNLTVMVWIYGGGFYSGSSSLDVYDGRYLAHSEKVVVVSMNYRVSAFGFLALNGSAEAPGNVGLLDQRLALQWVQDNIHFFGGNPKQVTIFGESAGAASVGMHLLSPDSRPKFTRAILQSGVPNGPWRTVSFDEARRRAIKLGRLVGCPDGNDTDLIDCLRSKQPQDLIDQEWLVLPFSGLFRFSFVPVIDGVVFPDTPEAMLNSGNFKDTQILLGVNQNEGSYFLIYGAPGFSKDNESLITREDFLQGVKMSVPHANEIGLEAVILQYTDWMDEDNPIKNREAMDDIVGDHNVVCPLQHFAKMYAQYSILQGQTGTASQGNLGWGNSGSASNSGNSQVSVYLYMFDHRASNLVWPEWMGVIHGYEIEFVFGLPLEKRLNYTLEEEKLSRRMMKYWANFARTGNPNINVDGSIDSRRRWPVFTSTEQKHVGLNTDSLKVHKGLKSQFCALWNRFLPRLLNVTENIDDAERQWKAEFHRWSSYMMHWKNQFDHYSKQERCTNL

Acetylcholinesterase [12] = molecular target: T4, Acetylcholinesterase; test: Inhibition of human erythrocyte AChE at 100 uM using acetylthiocholine chloride as substrate incubated for 5 mins followed by substrate addition measured after 180 secs by Ellman's method relative to control
[13] = Antioxidant activity assessed as DPPH radical scavenging activity at 100 uM measured after 30 mins incubation in dark by UV-Visible spectrophotometric analysis relative to control; format: functional

| Structure (SMILES) | inhibition [1] [%] | IC50 [2] [µM] | Activity (mmolequiv/mmol) [3] | Activity (mmolequiv/mmol) [4] | IC50 [5] [µM] | Ratio IC50 (Homo sapiens) | inhibition (Cholinesterase [6]) [%] | IC50 (Acetylcholinesterase [7]) [nM] | IC50 [8] [µM] | IC50 (Acetylcholinesterase [9]) [nM] | inhibition (BV-2) | IC50 (Cholinesterase [10]) | inhibition [11] [%] | inhibition (Acetylcholinesterase [12]) [%] | Activity [13] [%] |
| --- | --- | --- | --- | --- | --- | --- | --- | --- | --- | --- | --- | --- | --- | --- | --- |
| Cc1ccccc1CN1CCC(CCNC(=O)/C=C/c2cc(C(C)(C)C)c(O)c(C(C)(C)C)c2)CC1 | 55.9 | 65.3 | 1.61 | 0.75 | 7.2 | > 40 | 30.2 | 870 | 69.3 | 2510 | – | – | – | – | – |
| Cc1cc(C(C)(C)C)c(O)c(C(C)(C)C)c1 [BUTYLATED HYDROXYTOLUENE] | – | 88.6 | 1.57 | 0.59 | – | – | – | – | – | – | Active | – | – | – | – |
| CC(C)(C)c1cc(CCC(=O)NCCC2CCN(Cc3ccccc3)CC2)cc(C(C)(C)C)c1O | 42.4 | 54.5 | 1.33 | 0.69 | 46.9 | > 33 | 36.5 | 2310 | 94.1 | 3420 | – | – | – | – | – |
| COc1ccc(CN2CCC(CCNC(=O)/C=C/c3cc(C(C)(C)C)c(O)c(C(C)(C)C)c3)CC2)cc1 | 43.6 | 61.2 | 1.66 | 0.82 | 6.7 | – | – | 850 | 72.5 | 2120 | – | Not Active | – | – | – |
| CC(C)(C)c1cc(/C=C/C(=O)NCC2CCN(Cc3ccccc3)CC2)cc(C(C)(C)C)c1O | 16.6 | 75.6 | 1.31 | 0.86 | 11.7 | – | 21.7 | – | 48.4 | – | – | – | 29.1 | 28.1 | – |
| CC(C)(C)c1cc(/C=C/C(=O)NCCC2CCN(Cc3ccc(C#N)cc3)CC2)cc(C(C)(C)C)c1O | 48.1 | 79.5 | 1.62 | 0.84 | 13.9 | > 36 | 41.2 | 770 | 78.2 | 2780 | – | – | – | – | – |
| CC(C)(C)c1cc(/C=C/C(=O)NC2CCN(Cc3ccccc3)CC2)cc(C(C)(C)C)c1O | 31.5 | 71.9 | 1.42 | 0.94 | 33.5 | – | 9.41 | – | 42.5 | – | – | – | 34.3 | 27.7 | – |
| CC(C)(C)c1cc(C(=O)CNC2CCN(Cc3ccccc3)CC2)cc(C(C)(C)C)c1O | 27.2 | – | 0.35 | 0.36 | 83.4 | – | 26.1 | – | 104 | – | – | – | 45 | 43.4 | 16.3 |
| CC(C)(C)c1cc(/C=C/C(=O)NCCC2CCN(Cc3ccc(F)c(F)c3)CC2)cc(C(C)(C)C)c1O | 39.9 | 65.7 | 1.57 | 0.79 | 9.3 | – | – | 420 | 64.5 | 1620 | – | Not Active | – | – | – |
| Oc1ccc(/C=C/c2cc(O)cc(O)c2)cc1 [RESVERATROL] | – | 75.1 | 1.84 | 0.68 | – | – | – | – | – | – | Active | – | – | – | – |
| CC(C)(C)c1cc(/C=C/C(=O)NCCC2CCN(Cc3ccccc3Cl)CC2)cc(C(C)(C)C)c1O | 35.5 | 80.2 | 1.6 | 0.64 | 9.8 | – | – | 590 | 72.1 | 2440 | – | Not Active | – | – | – |
| CC(C)(C)c1cc(C(=O)NCCC2CCN(Cc3ccccc3)CC2)cc(C(C)(C)C)c1O | 49.7 | – | 1.6 | 0.84 | 89.2 | – | 15.8 | – | 109 | – | – | – | 41.8 | 34.1 | 49.1 |
| CC(C)(C)c1cc(/C=C/C(=O)NCCC2CCN(Cc3ccc(F)cc3)CC2)cc(C(C)(C)C)c1O | 40.2 | 57.5 | 1.51 | 0.88 | 11.1 | – | – | 320 | 59.6 | 980 | – | Not Active | – | – | – |
| CC(C)(C)c1cc(CCC(=O)NC2CCN(Cc3ccccc3)CC2)cc(C(C)(C)C)c1O | 28.7 | 80.3 | 1.62 | 0.68 | 70.4 | – | 12.3 | – | 90.2 | – | – | – | 34.4 | 30.2 | – |
| Cc1ccc(CN2CCC(CCNC(=O)/C=C/c3cc(C(C)(C)C)c(O)c(C(C)(C)C)c3)CC2)cc1 | 41.4 | 60.4 | 1.57 | 0.89 | 8.9 | – | – | 720 | 70.1 | 2010 | – | Not Active | – | – | – |
| CC(C)(C)c1cc(/C=C/C(=O)NCCC2CCN(Cc3cccc(F)c3)CC2)cc(C(C)(C)C)c1O | 37.9 | 55.2 | 1.59 | 0.78 | 6.5 | – | – | 680 | 58.4 | 1330 | – | Not Active | – | – | – |
| CC(C)(C)c1cc(/C=C/C(=O)NCCC2CCN(Cc3cccc([N+](=O)[O-])c3)CC2)cc(C(C)(C)C)c1O | 42.6 | 78.1 | 1.6 | 0.85 | 12.5 | – | – | 1210 | 70.9 | 3460 | – | Not Active | – | – | – |
| CC(C)(C)c1cc(/C=C/C(=O)NCCC2CCN(Cc3ccc(F)cc3F)CC2)cc(C(C)(C)C)c1O | 31.2 | 62.4 | 1.54 | 0.91 | 12.5 | – | – | 560 | 70.6 | 1780 | – | Not Active | – | – | – |
| CC(C)(C)c1cc(/C=C/C(=O)NCCC2CCN(Cc3ccc(Br)cc3)CC2)cc(C(C)(C)C)c1O | 38.9 | 85.6 | 1.59 | 0.77 | 13.2 | – | – | 1320 | 73.2 | 3810 | – | Not Active | – | – | – |
| CC(C)(C)c1cc(/C=C/C(=O)NCCC2CCN(Cc3cccc(Cl)c3)CC2)cc(C(C)(C)C)c1O | 41.5 | 83.1 | 1.55 | 0.74 | 8.7 | – | – | 740 | 65.1 | 2540 | – | Not Active | – | – | – |
